This passage reports GI50 and TGI results from PubChem BioAssay (NCI).

Molecules are shown by their SMILES.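 Briefly, cells in 96-well plates were exposed to five compound concentrations for 48 h, and endpoints were estimated by linear interpolation. GI50: concentration for 50% inhibition of growth. TGI: concentration producing complete growth inhibition.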

Test systems include ACHN renal; HOP-62 NSCLC; K-562 leukemia; NCI-H23 lung; RPMI-8226 leukemia; SK-MEL-5 melanoma; U251 CNS; UACC-62 melanoma; HT29 colon; OVCAR-8 ovarian.
Holding throughout (test): inhibition of tumour cell growth, NCI panel, 48 h

For `Cc1ccc(-c2nc3nc(-c4ccc(F)cc4)nc(N4CCCNCC4)c3o2)cc1`, the GI50 in the experiment with ACHN renal was 1.73 µM; in the experiment with HOP-62 NSCLC, 1.74 µM; in the experiment on K-562 leukemia, 0.225 µM; in the experiment with NCI-H23 lung it was 1.82 µM; in the experiment with RPMI-8226 leukemia, 1.85 µM; in the experiment with SK-MEL-5 melanoma, 1.75 µM. Moreover, the GI50 is 1.33 µM in the experiment with U251 CNS and 1.83 µM in the experiment on UACC-62 melanoma. Besides, the TGI was found to be 3.1 µM in the experiment with ACHN renal; 3.51 µM with HOP-62 NSCLC; 0.539 µM in the experiment on K-562 leukemia; 3.47 µM in the experiment on NCI-H23 lung; 4.66 µM in the experiment on RPMI-8226 leukemia; 3.16 µM in the experiment on SK-MEL-5 melanoma. In addition, the TGI amounted to 2.83 µM in the experiment on U251 CNS and 3.47 µM in the experiment with UACC-62 melanoma.
With `O=[N+]([O-])c1ccc(Sc2c3ccccc3nc3cc(Cl)ccc23)cc1`, the GI50 in the experiment on HOP-62 NSCLC, with K-562 leukemia, with NCI-H23 lung, with OVCAR-8 ovarian, with SK-MEL-5 melanoma and in the experiment on U251 CNS was above 100 µM throughout. Also, in the experiment on UACC-62 melanoma, the GI50 is above 100 µM. Also, the TGI in the experiment with HOP-62 NSCLC, in the experiment on HT29 colon, in the experiment on K-562 leukemia, in the experiment with NCI-H23 lung, in the experiment with OVCAR-8 ovarian and with RPMI-8226 leukemia was above 100 µM in each case. Further, the TGI in the experiment on SK-MEL-5 melanoma, with U251 CNS and in the experiment with UACC-62 melanoma was above 100 µM in each case.
For the compound `C[C@H]1CCCC(O)C(O)[C@@H]2C[C@H](O[Si](C)(C)C(C)(C)C)C[C@H]2[C@H](O[Si](C)(C)C(C)(C)C)C(O)C(O)C(=O)O1` (stereo partly drawn), the GI50 with ACHN renal is 14.4 µM; with HOP-62 NSCLC, 11 µM; with HT29 colon, 62.7 µM; in the experiment on K-562 leukemia it was 69.4 µM; in the experiment on OVCAR-8 ovarian, 13.5 µM; in the experiment on RPMI-8226 leukemia it was above 100 µM. Moreover, the results for the GI50 with SK-MEL-5 melanoma, in the experiment on U251 CNS and in the experiment on UACC-62 melanoma were 45.4 µM, 12.7 µM and 18.5 µM, respectively. Besides, the TGI in the experiment with ACHN renal is 44.7 µM; in the experiment with HOP-62 NSCLC, 27.6 µM; in the experiment on HT29 colon it was above 100 µM; in the experiment with K-562 leukemia, above 100 µM; in the experiment with OVCAR-8 ovarian, 37.3 µM; in the experiment with RPMI-8226 leukemia it was above 100 µM. For the same compound, the TGI was above 100 µM with SK-MEL-5 melanoma, 30.9 µM in the experiment with U251 CNS and 48.8 µM in the experiment with UACC-62 melanoma.
As to `CCC(=O)Nc1nc2c(ncn2C2OC(COC(=O)CC)C(OC(=O)CC)C2OC(=O)CC)c(=O)[nH]1` (stereo not drawn), the TGI with ACHN renal, in the experiment on HOP-62 NSCLC, in the experiment on HT29 colon, in the experiment on K-562 leukemia, in the experiment on OVCAR-8 ovarian and in the experiment on RPMI-8226 leukemia was above 100 µM each time. The TGI with SK-MEL-5 melanoma, in the experiment with U251 CNS and in the experiment with UACC-62 melanoma was above 100 µM each time.
On to `O=C(O)c1ccc(C2C(=O)N[C@@H]3CCC[C@H]23)cc1` (stereo partly drawn), for which the TGI with HOP-62 NSCLC, in the experiment on HT29 colon, in the experiment with K-562 leukemia, with NCI-H23 lung, in the experiment on OVCAR-8 ovarian and in the experiment with RPMI-8226 leukemia was above 100 µM throughout. In addition, the TGI with SK-MEL-5 melanoma, with U251 CNS and in the experiment on UACC-62 melanoma was above 100 µM throughout.
For `CCOC(=O)NC(=O)c1cn(CCN2CCN(C(=O)CCCCCCCCCCC(=O)N3CCN(CCn4cc(C(=O)NC(=O)OCC)c(=O)[nH]c4=O)CC3)CC2)c(=O)[nH]c1=O`, the TGI with ACHN renal, in the experiment with HOP-62 NSCLC, with HT29 colon, with K-562 leukemia, with NCI-H23 lung and in the experiment on OVCAR-8 ovarian was above 100 µM each time. For the same compound, the TGI in the experiment with RPMI-8226 leukemia, in the experiment with SK-MEL-5 melanoma and in the experiment on U251 CNS was above 100 µM each time.
`CCNC(=O)COc1ccc(Cl)cc1Cl`: the TGI in the experiment with ACHN renal, with HOP-62 NSCLC, in the experiment on HT29 colon, in the experiment with K-562 leukemia, in the experiment on NCI-H23 lung and with OVCAR-8 ovarian was above 100 µM throughout. Moreover, the TGI in the experiment with RPMI-8226 leukemia, with SK-MEL-5 melanoma and in the experiment with U251 CNS was above 100 µM in each case.
As to `NC(=S)NN/C=C(\C=Nc1ccccc1)[N+](=O)[O-]`, the TGI in the experiment with ACHN renal, in the experiment on HOP-62 NSCLC, with HT29 colon, in the experiment on K-562 leukemia, with NCI-H23 lung and in the experiment on OVCAR-8 ovarian was above 100 µM throughout. Also, the TGI in the experiment with RPMI-8226 leukemia and in the experiment with UACC-62 melanoma was above 100 µM throughout.
As for `Cc1c2ccccc2cc2ccc3oc([N+](=O)[O-])cc3c12`, the TGI in the experiment on ACHN renal, with HOP-62 NSCLC, in the experiment with HT29 colon, in the experiment on K-562 leukemia, with OVCAR-8 ovarian and with RPMI-8226 leukemia was above 100 µM in each case. The TGI with SK-MEL-5 melanoma, with U251 CNS and in the experiment on UACC-62 melanoma was above 100 µM each time.
